Assay results taken from patent US4416885A, “Use of isopropylaminopyrimidine in the chemotherapy of muscular dystrophy, myopathy and myotonia” (priority 1982, dated 1983).

Tests used:
Type in all cases: in vivo, chicken
normal chickens 412 = assay: Experiment 4, weight of normal chickens injected with IAPP; details: 50 mg/Kg
Experimental: All chickens were injected with 50 mg/Kg IAPP and weighed approximately every second or third day.
A: Control-injected with PBS
B, C, D: Experimental-injected with 50 mg/Kg IAPP

[1] = test system: dystrophic New Hampshire chickens, line 413; assay: Overall assessment of chemotherapy over all parameters measured
Experimental: The compound IAPP was tested on dystrophic New Hampshire chickens, line 413, and Imperial College (London, England) sub-line of the original Davis, University of California strain. The chickens are homozygous for muscular dystrophy, the disease appearing with 100% incidence.
Chemotherapy was assessed by application of seven different parameters: physical tests of muscular disability, namely the flip test and wing apposition (W.A.) measurements; biochemical assays of serum and muscle enzume levels of creatine phosphokinase (CPK), pyruvate kinase (PK) and acetylcholinesterase (AChE); and histological comparisons of treated and untreated muscle. Toxicity studies (weight loss, etc.) were also used. A very comprehensive profile of the drug was thus obtained which related to all the known, highly characteristic features of the disease which are applicable to both the animal model and the human. […]

[2] = test system: pectoral muscle fibre of dystrophic chickens; assay: Histopathology of pectoral muscle; details: for % Fibre Splitting / % Phagocytosis / Hypertrophy Factor / Mean Endomysial Area / Nuclei/Fibre / Peripheral Nuclei (% of Total) / Range (endomysial area) / Variability Coefficient: 30 days
Description: Muscle fibre area increase greatly in the dystrophic chicken as does the range of fibre area sizes. Nuclei become displaced peripherally and both features can be measured quantitatively and compared with normal controls.
The main difference between 4-week (FIG. 1A) and 7-week old (FIG. 2A) normal muscle from pectoral biopsies, at the light microscopic level, is with regard to myofibre growth. There is an increase in fibre area and a redistribution of the position and number of muscle nuclei. The latter change from a random distribution in the fibre in the 4-week bird to a central location in the 7-week bird of about 80% of the nuclei. The fibres are closely packed, with very little connective tissue present and every fibre is clearly polygonal in shape.
In contrast, dystrophic pectoral muscle has very few fibres which appear normal at 4 weeks of age. They are nearly all rounded in shape (as opposed to polygonal) and many are hypertrophic. Longitudinal fibre splitting occurs and the muscle nuclei lie preferentially against the sarcolemma (FIG. 1B). There is a large increase in perimysial connective tissue. By 7 weeks, massive hypertrophy occurs (FIG. 2B). Fibre splitting leads to hyperplasia. […] Pyknotic nuclei appear, and the muscle nuclei are randomly scattered throughout the fibre. Connective tissue often appears very dense. Some fibres are starting to atrophy and fatty tissue replacement can sometimes be seen at this stage.

[3] = 200 mg/Kg i.p. daily for 28 days
[4] = oral 1 g/Kg daily, first four weeks

## CC(C)Nc1ncccn1.O=P(O)(O)O [IAPP, 2-isopropylaminopyrimidine orthophosphate]
Normal chickens 412; Exp. 4, 412B, day 1
  Weight: 51.3 GRAMS
Normal chickens 412; Exp. 4, 412B, day 4
  Weight: 55.8 GRAMS
Normal chickens 412; Exp. 4, 412B, day 7
  Weight: 67.6 GRAMS
Normal chickens 412; Exp. 4, 412B, day 9
  Weight: 68.1 GRAMS
Normal chickens 412; Exp. 4, 412C, day 1
  Weight: 50.8 GRAMS
Normal chickens 412; Exp. 4, 412C, day 4
  Weight: 59.9 GRAMS
Normal chickens 412; Exp. 4, 412C, day 7
  Weight: 67.8 GRAMS
Normal chickens 412; Exp. 4, 412C, day 9
  Weight: 67.7 GRAMS
Normal chickens 412; Exp. 4, 412C, day 11
  Weight: 76.4 GRAMS
Normal chickens 412; Exp. 4, 412C, day 14
  Weight: 111.8 GRAMS
Normal chickens 412; Exp. 4, 412C, day 16
  Weight: 139.0 GRAMS
Normal chickens 412; Exp. 4, 412C, day 17
  Weight: 150.2 GRAMS
Normal chickens 412; Exp. 4, 412D, day 1
  Weight: 52.6 GRAMS
Normal chickens 412; Exp. 4, 412D, day 4
  Weight: 60.5 GRAMS
Normal chickens 412; Exp. 4, 412D, day 7
  Weight: 67.7 GRAMS
Normal chickens 412; Exp. 4, 412D, day 9
  Weight: 67.7 GRAMS
Normal chickens 412; Exp. 4, 412D, day 11
  Weight: 76.6 GRAMS
Normal chickens 412; Exp. 4, 412D, day 14
  Weight: 112.8 GRAMS
Normal chickens 412; Exp. 4, 412D, day 16
  Weight: 139.6 GRAMS
Normal chickens 412; Exp. 4, 412D, day 20
  Weight: 191.5 GRAMS
Normal chickens 412; Exp. 4, 412D, day 22
  Weight: 246.4 GRAMS
Normal chickens 412; Exp. 4, 412D, day 25
  Weight: 273.4 GRAMS
[1]; [3]
  Physical performance: not significantly improved
  Reduction in plasma enzyme levels: large reduction in plasma enzume levels
[1]; 200 mg/Kg i.p., CPK, PK, AChE reduced from control values
  Persistence of enzyme reduction after injections ceased: 56 days
[1]; 300 mg/Kg i.p. daily
  Plasma enzyme activities: greatly reduced
[1]; 300 mg/Kg i.p. three times weekly
  Persistence of reduced plasma enzyme levels after treatment ceased: 56 days
[1]; 300 mg/Kg three times weekly
  Reductions in plasma enzyme levels vs daily therapy: very comparable reductions in plasma enzyme levels
[1]; Exp. 1, 30 mg/Kg i.p. daily
  Difference between treated and dystrophic control animals, parameters measured: no significant differents
[1]; Exp. 2, 40 mg/Kg
  Flip number and wing apposition: significant improvement
[1]; Exp. 2, 40 mg/Kg i.p. daily
  Effect on all parameters measured: significant effect of IAPP on all parameters measured
[1]; Exp. 2, 40 mg/Kg, effect declining at end of 10-week experiment
  CPK, PK and AChE enzyme levels: reduced dramatically
[1]; Gallus gallus, ip, read-out: Minimum concentration found effective
  minimal effective dose: 40 mg/kg
[1]; oral 200 mg/Kg, 60 days
  Effect on physical performance parameters: no effect
[1]; oral 600 mg/Kg
  Enzyme levels and physical performance: significant reductions in enzyme levels and improvements in physical performance
[1]; [4]
  Physical performance parameters: greatly improved
  Reduction in enzyme levels: highly significant reduction in enzyme levels
[1]; oral, daily for 35 days, chicken
  Effective oral dosage: 1 g/kg
[2]; 150 mg
  % Fibre Splitting: 3.0%
  % Phagocytosis: 0.0%
  Hypertrophy Factor: 125
  Mean Endomysial Area: 1025 μm^2
  Nuclei/Fibre: 2.5
  Peripheral Nuclei (% of Total): 46.1 % of Total
  Range (endomysial area): 82-2001 μm^2
  Variability Coefficient: 416
[2]; 150 mg/Kg daily, 7 week old biopsy
  Fibres still polygonal: 50%
[2]; 200 mg
  % Fibre Splitting: 8.4%
  % Phagocytosis: 1.6%
  Hypertrophy Factor: 460
  Mean Endomysial Area: 763 μm^2
  Nuclei/Fibre: 2.5
  Peripheral Nuclei (% of Total): 59.1 % of Total
  Range (endomysial area): 54-2554 μm^2
  Variability Coefficient: 709
[2]; 300 mg (3× wk.)
  % Fibre Splitting: 3.0%
  % Phagocytosis: 0.0%
  Hypertrophy Factor: 10
  Mean Endomysial Area: 449 μm^2
  Nuclei/Fibre: 1.3
  Peripheral Nuclei (% of Total): 40.9 % of Total
  Range (endomysial area): 51-1060 μm^2
  Variability Coefficient: 518
[2]; 300 mg
  % Fibre Splitting: 10.3%
  % Phagocytosis: 0.3%
  Hypertrophy Factor: 100
  Mean Endomysial Area: 552 μm^2
  Nuclei/Fibre: 1.7
  Peripheral Nuclei (% of Total): 42.1 % of Total
  Range (endomysial area): 24-1226 μm^2
  Variability Coefficient: 580
[2]; 300 mg/Kg 3 times/week at 30 days
  Muscle appearance vs normal muscle: indistinguishable from normal muscle
[2]; i.p.
  Dosage at which histological parameters most closely approximate normal values: 300 mg/Kg
[2]; oral 1 g/Kg daily for 35 days
  Muscle morphology: marked improvements in the muscle morphology
